Experimental data from article PMC8948292, “Combining PEGylated mito-atovaquone with MCT and Krebs cycle redox inhibitors as a potential strategy to abrogate tumor cell proliferation” (Scientific Reports, 2022).
Like-named read-outs stand apart in the source and are kept apart here.

How the values were obtained:
MiaPaCa-2 cells = test: Cell proliferation (cell confluence), IncuCyte Live-Cell Analysis System; assay type: cell-based, human; conditions: MiaPaCa-2 cells
Experimental: (§1) The following cell lines were obtained from the American Type Culture Collection (Manassas, VA), where they were regularly authenticated: MiaPaCa-2 (ATCC Cat# CRL-1420, human pancreatic cancer cells), U87MG (ATCC Cat# HTB-14, human brain cancer cells), A549 (ATCC Cat# CCL-185, lung cancer cells), and HCT-116 (ATCC Cat# CCL-247, colon cancer cells). All cell lines were grown at 37 °C in 5% carbon dioxide. MiaPaCa-2 cells were maintained in Dulbecco's Modified Eagle Medium (Thermo Fisher Scientific, Waltham, MA; Cat# 11965) supplemented with 10% fetal bovine serum. U87MG, A549, and HCT-116 cells were maintained in RPMI 1640 medium (Thermo Fisher Scientific, Cat# 11875), supplemented with 10% fetal bovine serum. All cells were stored in liquid nitrogen and used within 20 passages after thawing.
(§2) The IncuCyte Live-Cell Analysis System was used to monitor cell proliferation[3],[33],[67]. As shown in previous publications[3],[67], this imaging system is probe-free and noninvasive, and enables continuous monitoring of cell confluence over several days. The increase in the percentage of cell confluence was used as a surrogate marker of cell proliferation. In a 96-well plate, cells were plated at 1,000 cells per well in triplicates and left to adhere overnight. Cells were then treated with Mito-PEG-ATO analogs, and the cell confluency was recorded over several days in the IncuCyte Live-Cell Analysis System.

A549 cells = test: as above; assay type: cell-based; conditions: Homo sapiens; A549 cells; control ~90% confluence; read-out: IC50, inhibition of A549 cell proliferation
Experimental: as §1, §2
(§3) Figure S7. Effects of Mito-PEG-ATO analogs on the proliferation of human lung cancer (A549) cells and human colon cancer (HCT-116) cells. (A) The effects of Mito-PEG5-ATO and ATO on the proliferation of A549 (left) or HCT-116 (right) cells were monitored in the IncuCyte Live-Cell Analysis system. The IncuCyte analyzer provides real-time updates on cell confluence, based on segmentation of high definition-phase contrast images. Representative cell images were shown as a segmentation mask illustrated in brown when control cells reached 90% confluence (vertical solid black line). (B) The IC50 values for A549 (left) or HCT-116 (right) cells were determined at the point at which control cells reached ~90% confluence (vertical solid black line). Relative cell confluence (control is taken as 100%) is plotted against concentration. Dashed lines represent the fitting curves used to determine the IC50 values as indicated. Data shown are the mean±SD.

HCT-116 cells = test: as above; assay type: cell-based; conditions: Homo sapiens; HCT-116 cells; control ~90% confluence; read-out: IC50, inhibition of HCT-116 cell proliferation
Experimental: as §1, §2, §3

[1] = system: mitochondrial respiration (OCR) in intact MiaPaCa-2 cells; test: Intact cell mitochondrial respiration (basal OCR), Seahorse XF-96; assay type: cell-based, human; conditions: 24 h treatment; for OCR (pmol/min/µg protein): intact MiaPaCa-2 cells, baseline OCR, mean, n=4
Experimental: (§4) Mitochondrial oxygen consumption was measured using the Seahorse XF-96 Extracellular Flux Analyzer (Agilent, North Billerica, MA)[3],[33],[67],[68]. To determine the intact cell mitochondrial function of MiaPaCa-2 cells in response to Mito-PEG-ATO analogs, we used the bioenergetic function assay previously described[2],[3]. […] From these measurements, indices of mitochondrial function were determined as previously described[2],[3]. For mitochondrial complex activities assays, after cells were treated with Mito-PEG-ATO analogs for 24 h, the OCR-based assessment of mitochondrial complex activities was carried out on acutely permeabilized cells in the presence of different mitochondrial substrates, i.e., pyruvate/malate for complex I and duroquinol for complex III[3],[32],[34],[69]. Rotenone, malonate, and antimycin A (Sigma-Aldrich, St. Louis, MO) were used as specific inhibitors of mitochondrial complexes I, II, and III, respectively. Briefly, cells that were intact after treatments were immediately permeabilized using the Seahorse XF Plasma Membrane Permeabilizer (Agilent). The mitochondrial complex I-induced OCR was assayed in mannitol and sucrose buffer[69] containing 10 mM pyruvate and 1.5 mM malate (substrates for complex I) and 10 mM malonate (which inhibits complex II activities). The mitochondrial complex III-driven OCR was assayed in a mannitol and sucrose buffer containing 0.5 mM duroquinol (substrate for complex III) as well as 1 µM rotenone and 10 mM malonate (which inhibit both complex I and II activities). The IC50 values were determined as previously reported.

[2] = molecular target: mitochondrial complex I (MiaPaCa-2 cells) (Homo sapiens, UniProt O75251+O75306+P03886); test: Complex I-dependent oxygen consumption in permeabilized cells, Seahorse XF-96; assay type: cell-based; conditions: 24 h, with Mito-PEG5-ATO
Experimental: as §4, with “The mitochondrial complex III-driven OCR was assayed in a mannitol and sucrose buffer containing 0.5 mM duroquinol (substrate for complex III) as well as 1 µM rotenone and 10 mM malonate (which inhibit both complex I and II activities).” left out

[3] = molecular target: mitochondrial complex III (MiaPaCa-2 cells) (Homo sapiens, UniProt P00156); test: Complex III-dependent oxygen consumption in permeabilized cells, Seahorse XF-96; assay type: cell-based; conditions: MiaPaCa-2 cells; with Mito-PEG5-ATO
Experimental: as §4

Chain of mitochondrial complex I (MiaPaCa-2 cells) (O75306 34-463): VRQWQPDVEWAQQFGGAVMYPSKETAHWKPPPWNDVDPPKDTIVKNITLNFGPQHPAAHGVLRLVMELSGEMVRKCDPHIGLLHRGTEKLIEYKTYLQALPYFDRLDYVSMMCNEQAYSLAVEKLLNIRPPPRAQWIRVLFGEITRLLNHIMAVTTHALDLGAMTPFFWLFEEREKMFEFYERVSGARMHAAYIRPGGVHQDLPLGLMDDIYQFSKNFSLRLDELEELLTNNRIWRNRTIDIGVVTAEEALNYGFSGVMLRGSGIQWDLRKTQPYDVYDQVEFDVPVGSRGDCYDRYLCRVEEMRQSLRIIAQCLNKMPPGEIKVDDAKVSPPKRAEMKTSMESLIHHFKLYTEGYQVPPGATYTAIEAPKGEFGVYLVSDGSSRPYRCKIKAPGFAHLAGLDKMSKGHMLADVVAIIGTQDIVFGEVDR
Chain of mitochondrial complex I (MiaPaCa-2 cells) (O75251 39-213): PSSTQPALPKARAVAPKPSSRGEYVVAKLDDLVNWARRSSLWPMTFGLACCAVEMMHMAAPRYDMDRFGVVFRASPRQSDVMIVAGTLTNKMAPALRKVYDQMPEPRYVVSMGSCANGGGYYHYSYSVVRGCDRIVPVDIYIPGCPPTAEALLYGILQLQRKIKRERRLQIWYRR
Chain of mitochondrial complex I (MiaPaCa-2 cells) (P03886 whole entry): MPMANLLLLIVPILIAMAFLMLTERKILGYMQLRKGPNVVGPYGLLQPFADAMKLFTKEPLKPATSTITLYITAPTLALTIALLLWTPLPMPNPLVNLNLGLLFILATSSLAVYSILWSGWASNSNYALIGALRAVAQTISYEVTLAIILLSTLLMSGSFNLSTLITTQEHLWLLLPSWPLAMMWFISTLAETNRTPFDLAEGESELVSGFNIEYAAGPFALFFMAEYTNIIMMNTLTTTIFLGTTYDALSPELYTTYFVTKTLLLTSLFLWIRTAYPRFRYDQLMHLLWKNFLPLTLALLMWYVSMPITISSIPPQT
Chain of mitochondrial complex III (MiaPaCa-2 cells) (P00156 whole entry): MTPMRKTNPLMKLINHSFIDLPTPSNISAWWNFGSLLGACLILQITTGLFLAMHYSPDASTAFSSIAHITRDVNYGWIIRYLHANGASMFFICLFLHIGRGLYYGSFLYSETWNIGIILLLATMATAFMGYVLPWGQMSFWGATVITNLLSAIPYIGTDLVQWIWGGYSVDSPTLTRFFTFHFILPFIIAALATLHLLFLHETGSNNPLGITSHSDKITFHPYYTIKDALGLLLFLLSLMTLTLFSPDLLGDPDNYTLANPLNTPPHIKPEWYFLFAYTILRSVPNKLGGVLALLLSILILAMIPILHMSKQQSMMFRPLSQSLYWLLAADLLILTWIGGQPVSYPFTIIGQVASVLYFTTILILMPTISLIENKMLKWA
Chain of mitochondrial complex III (MiaPaCa-2 cells) (P47985 whole entry partner): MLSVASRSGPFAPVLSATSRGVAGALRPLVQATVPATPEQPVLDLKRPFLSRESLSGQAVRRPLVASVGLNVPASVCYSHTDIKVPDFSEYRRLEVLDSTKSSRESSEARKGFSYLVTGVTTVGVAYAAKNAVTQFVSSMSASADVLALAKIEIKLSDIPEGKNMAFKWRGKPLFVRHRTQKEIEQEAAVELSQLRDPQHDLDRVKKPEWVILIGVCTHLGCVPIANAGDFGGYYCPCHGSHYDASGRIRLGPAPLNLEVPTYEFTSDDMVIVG

Row | SMILES | IC50 (MiaPaCa-2 cells; Homo sapiens, MIA PaCa-2, determined when control cells reached ~90% confluence, read-out: IC50, inhibition of cell proliferation) | IC50 (A549 cells) | IC50 (HCT-116 cells) | OCR (pmol/min/µg protein) ([1]; 1 µM) | OCR (pmol/min/µg protein) ([1]; 3 µM) | OCR (pmol/min/µg protein) ([1]; 10 µM) | OCR (pmol/min/µg protein) ([1]; 15 µM) | OCR (pmol/min/µg protein) ([1]; 17.5 µM) | OCR (pmol/min/µg protein) ([1]; 20 µM) | OCR (pmol/min/µg protein) ([1]; 22.5 µM) | OCR (pmol/min/µg protein) ([1]; 25 µM) | OCR (pmol/min/µg protein) ([1]; 30 µM) | OCR (pmol/min/µg protein) ([1]; 40 µM) | OCR (pmol/min/µg protein) ([1]; 50 µM) | IC50 ([1]; Homo sapiens, MIA PaCa-2, MiaPaCa-2 cells, read-out: IC50, inhibition of basal OCR in intact cells) | Inhibition of cell proliferation in combination with Mito-PEG5-ATO (combination index) (MiaPaCa-2 cells; combined with Mito-PEG5-ATO) | % changes of IC50 with vs without Mito-PEG5-ATO (MiaPaCa-2 cells; heat map Fig. 7d) | IC50 (MiaPaCa-2 cells; inhibitor alone, control ~90% confluence, read-out: IC50 (cell proliferation) without Mito-PEG5-ATO) | Effect on the decrease in complex I-induced oxygen consumption induced by Mito-PEG5-ATO [2] | Effect on the decrease in complex III-induced oxygen consumption induced by Mito-PEG5-ATO [3]
1 | O=C1C(O)=C([C@H]2CC[C@H](c3ccc(Cl)cc3)CC2)C(=O)c2ccccc21 [ATO, atovaquone] | 19 µM | 24 µM | 20 µM | 11.69 pmol/min/µg protein | 11.27 pmol/min/µg protein | 4.45 pmol/min/µg protein | 3.40 pmol/min/µg protein | 2.08 pmol/min/µg protein | 1.80 pmol/min/µg protein | 2.05 pmol/min/µg protein | 2.46 pmol/min/µg protein | 1.99 pmol/min/µg protein | 2.11 pmol/min/µg protein | 0.93 pmol/min/µg protein | 6.5 µM | – | – | – | – | –
2 | Cc1cccc(COc2ccccc2CN(CC[C@H](N)C(=O)O)Cc2ccccc2OCc2cccc(C)c2)c1 [V-9302, reference compound] | – | – | – | – | – | – | – | – | – | – | – | – | – | – | – | synergistically inhibited | 71.1% | 8.6 µM | Neither AZD-3965 nor V-9302 significantly affected | Neither AZD-3965 nor V-9302 significantly affected
